In patent US10717730B1, “Dihydroisoquinoline compound” (SUZHOU ARK BIOPHARMACEUTICAL CO., LTD., priority 2017, dated 2020):

Legend:
[1] = Cytotoxicity CC50 (CellTiter-Glo); type: cell-based; conditions: human; HepG2.2.15 cells, four days
Description: HepG2.2.15 cells were seeded into 96-well white plate at 5000 cells/well and treated with serially diluted compounds. The plates were incubated in incubator with 5% CO2 at 37° C. for four days. The plate was taken out of incubator and adapted to room temperature for 30 minutes, followed by adding 25 μl CellTiter-Glo (Promega) reagent into each well and votexed at room temperature before being measured for luminance using spectrometer (Tecan Infinite® F200). The CC50 of each compound was defined as the compound concentration at which the treated well's cell viability is 50% compared to that of the DMSO treated well.

HBsAg = HBsAg assay (secreted HBsAg by CLIA in HepG2.2.15 cells); type: cell-based, hepatitis B virus (HBV); conditions: Hepatitis B virus, HepG2.2.15, 96 h
Description: HepG2.2.15 cells (Sells et al, Proc Natl Acad Sci USA. 1987 February; 84(4):1005-9), a constitutively HBV-expressing cell line, were cultured in DMEM medium supplemented with 10% FBS and 400 μg/mL G418, and maintained in 5% CO2 at 37° C.
HepG2.2.15 cells were seeded into 96-well plates at 3×10^4 cells/well. The next day, the cells were treated with a five-fold serial dilution series of the compound in DMSO. The final DMSO concentration in all wells was 0.5% and 0.5% DMSO was used as no drug control. After four days of incubation with compounds, the supernatants were harvested and measured for HBsAg concentration
The HBsAg chemiluminescence immunoassay (CLIA) kit was used to measure the levels of secreted HBsAg. Specifically, 50 μL of culture supernatant was transferred to the CLIA assay plate and 50 μL of enzyme conjugate reagent was added into each well. The plates were sealed and incubated for 1 hour at room temperature. The supernatant-enzyme-mixture was discarded and wells were washed for 6 times. The residual liquid was removed by plating on tissue paper. 25 μL of substrate A and B were added into each well. Luminance was measured using a spectrometer (Tecan Infinite® F200) after 10 minutes incubation. IC50 value was extrapolated based the dose-response curves generated from the data.

Row | SMILES | CC50 at 4 days [1] [nM] | IC50 (HBsAg) [nM]
1 | COc1cc2c(cc1-c1ccnn1C(C)C)CC(C(C)(C)C)n1cc(C(=O)O)c(=O)cc1-2 (stereo not shown) [Example 18, 6-(tert-butyl)-9-(1-isopropyl-1H-pyrazol-5-yl)-10-methoxy-2-oxo-6,7-dihydro-2H-pyrido[2,1-a]isoquinoline-3-carboxylic acid] | 50000 to 100000 | 77
2 | COc1cc2c(cc1-c1c(C)cnn1C)CC(C(C)(C)C)n1cc(C(=O)O)c(=O)cc1-2 (stereo not shown) [Example 19, 6-(tert-butyl)-9-(1,4-dimethyl-1H-pyrazol-5-yl)-10-methoxy-2-oxo-6,7-dihydro-2H-pyrido[2,1-a]isoquinoline-3-carboxylic acid] | 50000 to 100000 | 68
3 | COc1cc2c(cc1-c1cnn(CC(=O)O)c1)CC(C(C)(C)C)n1cc(C(=O)O)c(=O)cc1-2 (stereo not shown) [Example 20, 6-(tert-butyl)-9-(1-carboxymethyl-1H-pyrazol-4-yl)-10-methoxy-2-oxo-6,7-dihydro-2H-pyrido[2,1-a]isoquinoline-3-carboxylic acid] | > 100000 | 7
4 | CCOC(=O)CCn1cc(-c2cc3c(cc2OC)-c2cc(=O)c(C(=O)OCC)cn2C(C(C)(C)C)C3)cn1 (stereo not shown) [Example 21, Ethyl 6-(tert-butyl)-9-(1-(3-ethoxy-3-oxopropyl)-1H-pyrazol-4-yl)-10-methoxy-2-oxo-6,7-dihydro-2H-pyrido[2,1-a]isoquinoline-3-carboxylate] | 50000 to 100000 | 16
5 | COc1cc2c(cc1-c1cnn(CCC(=O)O)c1)CC(C(C)(C)C)n1cc(C(=O)O)c(=O)cc1-2 (stereo not shown) [Example 22, 6-(tert-butyl)-9-(1-(2-carboxyethyl)-1H-pyrazol-4-yl)-10-methoxy-2-oxo-6,7-dihydro-2H-pyrido[2,1-a]isoquinoline-3-carboxylic acid] | 50000 to 100000 | 7
6 | COc1cc2c(cc1-c1cnn(CCCC(=O)O)c1)CC(C(C)(C)C)n1cc(C(=O)O)c(=O)cc1-2 (stereo not shown) [Example 24, 6-(tert-butyl)-9-(1-(3-carboxypropyl)-1H-pyrazol-4-yl)-10-methoxy-2-oxo-6,7-dihydro-2H-pyrido[2,1-a]isoquinoline-3-carboxylic acid] | 50000 to 100000 | 8
7 | COc1cc2c(cc1-c1c[nH]nc1C)CC(C(C)(C)C)n1cc(C(=O)O)c(=O)cc1-2 (stereo not shown) [Example 25, 6-(tert-butyl)-10-methoxy-9-(3-methyl-1H-pyrazol-4-yl)-2-oxo-6,7-dihydro-2H-pyrido[2,1-a]isoquinoline-3-carboxylic acid] | 50000 to 100000 | 7
8 | COc1cc2c(cc1-c1cnc(C)s1)CC(C(C)(C)C)n1cc(C(=O)O)c(=O)cc1-2 (stereo not shown) [Example 28, 6-(tert-butyl)-10-methoxy-9-(2-methylthiazol-5-yl)-2-oxo-6,7-dihydro-2H-pyrido[2,1-a]isoquinoline-3-carboxylic acid] | > 100000 | 0.2
9 | COc1cc2c(cc1-c1nncn1CCCO)CC(C(C)(C)C)n1cc(C(=O)O)c(=O)cc1-2 (stereo not shown) [Example 31, 6-(tert-butyl)-9-(4-(3-hydroxypropyl)-4H-1,2,4-triazol-3-yl)-10-methoxy-2-oxo-6,7-dihydro-2H-pyrido[2,1-a]isoquinoline-3-carboxylic acid] | 50000 to 100000 | 826
10 | COc1cc2c(cc1-c1ncn(CCCO)n1)CC(C(C)(C)C)n1cc(C(=O)O)c(=O)cc1-2 (stereo not shown) [Example 32, 6-(tert-butyl)-9-(1-(3-hydroxypropyl)-1H-1,2,4-triazol-3-yl)-10-methoxy-2-oxo-6,7-dihydro-2H-pyrido[2,1-a]isoquinoline-3-carboxylic acid] | 50000 to 100000 | 97
11 | COc1cc2c(cc1-c1ccc(C)nc1)CC(C(C)(C)C)n1cc(C(=O)O)c(=O)cc1-2 (stereo not shown) [Example 37, 6-(tert-butyl)-10-methoxy-9-(6-methylpyridin-3-yl)-2-oxo-6,7-dihydro-2H-pyrido[2,1-a]isoquinoline-3-carboxylic acid] | 50000 to 100000 | 9
12 | COc1cc2c(cc1-c1ccc(N3CCC3)nc1)CC(C(C)(C)C)n1cc(C(=O)O)c(=O)cc1-2 (stereo not shown) [Example 50, 9-(6-(azetidin-1-yl)pyridin-3-yl)-6-(tert-butyl)-10-methoxy-2-oxo-6,7-dihydro-2H-pyrido[2,1-a]isoquinoline-3-carboxylic acid] | 50000 to 100000 | 0.5
13 | COc1cc2c(cc1-c1ccc(N3CCC(O)CC3)nc1)CC(C(C)(C)C)n1cc(C(=O)O)c(=O)cc1-2 (stereo not shown) [Example 51, 6-(tert-butyl)-9-(6-(4-hydroxypiperidin-1-yl)pyridin-3-yl)-10-methoxy-2-oxo-6,7-dihydro-2H-pyrido[2,1-a]isoquinoline-3-carboxylic acid] | > 100000 | 0.8
14 | CNc1ncc(-c2cc3c(cc2OC)-c2cc(=O)c(C(=O)O)cn2C(C(C)(C)C)C3)cn1 (stereo not shown) [Example 60, 6-(tert-butyl)-10-methoxy-9-(2-(methylamino)pyrimidin-5-yl)-2-oxo-6,7-dihydro-2H-pyrido[2,1-a]isoquinoline-3-carboxylic acid] | 50000 to 100000 | 0.1
15 | CCN1CCN(c2ncc(-c3cc4c(cc3OC)-c3cc(=O)c(C(=O)O)cn3C(C(C)(C)C)C4)cn2)CC1 (stereo not shown) [Example 63, 6-(tert-butyl)-9-(2-(4-ethylpiperazin-1-yl)pyrimidin-5-yl)-10-methoxy-2-oxo-6,7-dihydro-2H-pyrido[2,1-a]isoquinoline-3-carboxylic acid] | 50000 to 100000 | 27
16 | COc1cc2c(cc1-c1cnc(N3CCC3)nc1)CC(C(C)(C)C)n1cc(C(=O)O)c(=O)cc1-2 (stereo not shown) [Example 69, 9-(2-(azetidin-1-yl)pyrimidin-5-yl)-6-(tert-butyl)-10-methoxy-2-oxo-6,7-dihydro-2H-pyrido[2,1-a]isoquinoline-3-carboxylic acid] | 50000 to 100000 | 5
17 | CCOC(=O)c1cn2c(cc1=O)-c1cc(OC)c(-c3ccc(=O)n(C(C)(C)C(=O)OCC)c3)cc1CC2C(C)(C)C (stereo not shown) [Example 70, Ethyl 6-(tert-butyl)-9-(1-(1-ethoxy-2-methyl-1-oxoprop-2-yl)-6-oxo-1,6-dihydropyridin-3-yl)-10-methoxy-2-oxo-6,7-dihydro-2H-pyrido[2,1-a]isoquinoline-3-carboxylate] | 50000 to 100000 | 44
18 | CCOC(=O)Cn1cc(-c2cc3c(cc2OC)-c2cc(=O)c(C(=O)OCC)cn2C(C(C)(C)C)C3)ccc1=O (stereo not shown) [Example 71, Ethyl 6-(tert-butyl)-9-(1-(2-ethoxy-2-oxoethyl)-6-oxo-1,6-dihydropyridin-3-yl)-10-methoxy-2-oxo-6,7-dihydro-2H-pyrido[2,1-a]isoquinoline-3-carboxylate] | > 100000 | 192
19 | CCOC(=O)CCn1cc(-c2cc3c(cc2OC)-c2cc(=O)c(C(=O)OCC)cn2C(C(C)(C)C)C3)ccc1=O (stereo not shown) [Example 72, Ethyl 6-(tert-butyl)-9-(1-(3-ethoxy-3-oxopropyl)-6-oxo-1,6-dihydropyridin-3-yl)-10-methoxy-2-oxo-6,7-dihydro-2H-pyrido[2,1-a]isoquinoline-3-carboxylate] | 50000 to 100000 | 565
20 | COc1cc2c(cc1-c1cnc(N3CCC(C(=O)O)CC3)nc1)CC(C(C)(C)C)n1cc(C(=O)O)c(=O)cc1-2 (stereo not shown) [Example 73, 6-(tert-butyl)-9-(2-(4-carboxypiperidin-1-yl)pyrimidin-5-yl)-10-methoxy-2-oxo-6,7-dihydro-2H-pyrido[2,1-a]isoquinoline-3-carboxylic acid] | > 100000 | 67
